Values joined by “and” are separate entries in the source; they are usually repeats but may differ in a detail not shown here. Equal values may be shown once. Where a name gives a salt, the structure may show the parent alone.
Tested on: 5-HT release in the rat prefrontal cortex
Assay: Microdialysis: 5-HT release in prefrontal cortex after I.P. administration
Type: in vivo
Conditions: for 5-HT release, individual animals / 5-HT release, MEAN: 0.3 mg/kg I.P.; for 5-HT release, individual animals: one column per animal R#11,12,18,23,29,30,17,24, hydrochloride; for 5-HT release, MEAN / 5-HT release (% of basal levels) measured in dialysates, MEAN: n = 8; for serotonin levels, increase (not statistically significant): SON-117 0.1 mg/kg IP; for 5-HT release (% of basal levels) measured in dialysates, MEAN: SON-117 3 mg/kg IP
Description: The aim of the study was to evaluate, using microdialysis, the effects of an intraperitoneal (I.P.) administration in rats of three different doses of SON-117 on dopamine and its metabolites, serotonin and its metabolite (5-HIAA), and norepinephrine levels in prefrontal cortex.
Thirty-two adult male Wistar rats were used for the whole study (4 groups of eight animals planned for the study, Table 1).
Surgery was performed on rats weighing about 300 g at the beginning of the experiments. Rats were anaesthetized with Ketamine (50 mg/kg) & Xylazine (15 mg/kg) by intramuscular administration. The animals were placed in a stereotaxic apparatus in the flat-skull position at a constant setting of −3.3 mm between ear bars and the incisor bar. The animals were treated with a local anesthesic (xylocaine 1%, Astra Zeneca) and an analgesic (Temgesic, from Schering Plough, 0.05 mg/kg, s.c.). A rostrocaudal midline incision was made with a lancet to expose the dorsal skull surface. The “stereotaxic zero” was defined by the Bregma in accordance with Paxinos and Watson's atlas (1986). A hole was drilled in the skull with a drill and the meninges were pierced with a sterile needle to implant a CMA12 guide cannula which later received the dialysis probe.
Coordinates used for implanting guide cannula in prefrontal cortex from Bregma were anteroposterior 3.7 mm, mediolateral 0.8 mm, and dorsoventral −2 mm (top of the probe was at −5 mm). The guide cannula was fixed to the skull with two stainless steel screws (1.88 mm outside diameter) anchored. An application of dental cement was added. A plastic collar allowed each animal to be tethered to a Swivel assembly of the CMA 120 awake animal system. Following surgery, rats were kept in individual cages and allowed to recover for a minimum of 3-5 days before the experimentation. The rats were handled and put in plastic bowl for 10 min at least every day to habituate the animals to their new environment for the dialysis. An I.P. administration with saline was also performed every day.
Dialysis probes (CMA12/3 mm, membrane, 20 kD cut-off, Carnegie Medicine, Stockholm, Sweden), were carefully washed before inserting into the guide cannula. The wash was performed with the artificial cerebrospinal fluid (aCSF) medium (NaCl 147 mM, KCl 2.7 mM, CaCl2 1.2 mM, MgCl2 0.85 mM) at room temperature. The dialysis system was then equilibrated at 20° C. at a perfusion rate of 1 μl/min with a Carnegie pump (CMA100). All catheters (FEP tubing, internal volume of 1.2 μl/10 cm, and tubing adaptors) used for microdialysis were treated in the same conditions.
The probes duly prepared were inserted into the guide cannula and the CMA120 Swivel assembly secured to the animal using a plastic collar. Flow through the dialysis probe with aCSF was maintained at a rate of 1 μl/min during the whole experimentation. The first four fractions (corresponding to 2 hours) were discarded to avoid the effects of parenchymal disturbance and to ensure that an approximate steady-state level was reached. Fractions were then collected over a period of 8.5 h during which time the animals remained quiet. The dialysates were automatically collected with an autosampler (microfraction collector CMA 140, Carnegie Medicin) and stored at −80° C. until analysis. […] Perfusion was then maintained for 7 hours with aCSF. The dialysates (30 μl) were collected into 300 μl vials, transferred into dry ice and then kept frozen (−80° C.) until analysis. Frozen samples were shipped to a partner for analysis. At the end of the microdialysis study, a PBS with colored ink was perfused through the probe in order to visualize the dialyzed area.
Catecholamine assay: Concentrations of dopamine, DOPAC, HVA, 5-HIAA, 5-HT, and norepinephrin were determined for each sample by HPLC coupled with electrochemical detection. […]

For `Cc1nnc(-c2cc3c(OC[C@@H](O)CN4CCC(c5ccc(Cl)c(Cl)c5)CC4)cccc3o2)o1` [SON-117, (S)-1-(4-(3,4-dichlorophenyl)piperidino)-3-(2-(5-methyl-1,3,4-oxadiazol-2-yl)benzo(b)furan-4-yloxy)-2-propanol hydrochloride], the “5-HT release, individual animals” value (T3 h 30-T4 h) was 200.54 % of respective basal and 84.61 % of respective basal and 62.15 % of respective basal and 60.73 % of respective basal and 115.12 % of respective basal and 46.42 % of respective basal and 361.81 % of respective basal, the “5-HT release, MEAN” value (T3 h-T3 h 30) was 112.03 % of respective basal and the “5-HT release, individual animals” value (T3 h-T3 h 30) was 118.62 % of respective basal and 100.39 % of respective basal and 94.04 % of respective basal and 122.16 % of respective basal and 126.07 % of respective basal and 27.45 % of respective basal and 195.48 % of respective basal. For the same compound, the “5-HT release, MEAN” value (T4 h 30-T5 h) was 105.19 % of respective basal, the “5-HT release, individual animals” value (T4 h 30-T5 h) was 144.93 % of respective basal and 86.55 % of respective basal and 70.67 % of respective basal and 69.54 % of respective basal and 82.71 % of respective basal and 313.44 % of respective basal and 18.96 % of respective basal and 54.73 % of respective basal and the “5-HT release, MEAN” value (T4 h-T4 h 30) was 80.14 % of respective basal. For the same compound, the “5-HT release, individual animals” value (T4 h-T4 h 30) was 87.68 % of respective basal and 67.29 % of respective basal and 102.65 % of respective basal and 67.53 % of respective basal and 83.72 % of respective basal and 130.39 % of respective basal and 23.64 % of respective basal and 78.23 % of respective basal, the “5-HT release, MEAN” value (T5 h 30-T6 h) was 106.06 % of respective basal and the “5-HT release, individual animals” value (T5 h 30-T6 h) was 149.11 % of respective basal and 44.15 % of respective basal and 83.73 % of respective basal and 57.89 % of respective basal and 95.31 % of respective basal and 328.43 % of respective basal and 13.82 % of respective basal and 76.03 % of respective basal. The “5-HT release, MEAN” value (T5 h-T5 h 30) was 100.56 % of respective basal, the “5-HT release, individual animals” value (T5 h-T5 h 30) was 81.27 % of respective basal and 37.01 % of respective basal and 187.99 % of respective basal and 64.78 % of respective basal and 81.96 % of respective basal and 177.83 % of respective basal and 7.58 % of respective basal and 166.02 % of respective basal and the “5-HT release, MEAN” value (T6 h 30-T7 h) was 103.94 % of respective basal. The “5-HT release, individual animals” value (T6 h 30-T7 h) was 181.36 % of respective basal and 59.67 % of respective basal and 70.80 % of respective basal and 52.79 % of respective basal and 109.41 % of respective basal and 187.49 % of respective basal, the “5-HT release, MEAN” value (T6 h-T6 h 30) was 95.56 % of respective basal and the “5-HT release, individual animals” value (T6 h-T6 h 30) was 73.74 % of respective basal and 57.84 % of respective basal and 81.54 % of respective basal and 59.72 % of respective basal and 94.43 % of respective basal and 108.00 % of respective basal and 20.86 % of respective basal and 268.32 % of respective basal. The “5-HT release, MEAN” value (T-30 min-T0 (before administration)) was 94.43 % of respective basal, the “5-HT release, MEAN” value (T-1 h 30-T-1 h (before administration)) was 100.12 % of respective basal and the “5-HT release, MEAN” value (T-1 h-T-30 min (before administration)) was 104.14 % of respective basal. For the same compound, the “serotonin levels, increase (not statistically significant)” value (at 2.5 h) was 368%, the “serotonin levels, increase (not statistically significant)” value (from 4.5 h to 7 h) was 350% and the “5-HT release, maximum increase observed” value (SON-117 0.1 mg/kg, at 2.5 h) was 369%. For the same compound, the “levels of 5-HT compared to the citalopram treated group (significant)” value (SON-117 0.1 mg/kg, at 2.5 h, 4.5 and 5.5 h) was “higher”, the “5-HT dialysate levels vs mean pre-administration value” (SON-117 0.3 mg/kg IP) was “no statistically significant differences” and the “levels of 5-HT compared to the citalopram treated group (significant)” value (SON-117 0.3 mg/kg, at 1 h) was “slightly lower”. For the same compound, the “5-HT release (% of basal levels) measured in dialysates, MEAN” value (T0-T30 min) was 100.79 % of basal levels and the “5-HT release (% of basal levels) measured in dialysates, MEAN” value (T30-T1 h) was 122.25 % of basal levels.

Reference: US20250109127A1, “METHODS OF USE OF PHENOXYPROPYLAMINE COMPOUNDS TO TREAT DEPRESSION” (Minerva Neurosciences, Inc., priority 2013, published 2025)
